Laboratory results as given in patent US12409172B2, “Dosage regimen” (UNION therapeutics A/S, priority 2023, dated 2025).

How the values were obtained:
[1] = test system: adults with moderate-to-severe plaque-type psoriasis; test: Phase 2b dose-ranging study in psoriasis (Example 3): efficacy (PASI), incl. body-weight sub-group and post-hoc analysis; assay type: in vivo, human
Source text: • Percentage change in Psoriasis […] and Severity Index (PASI) score from Baseline at Week 16. Key Secondary Endpoints • Patients achieving 75% reduction in PASI (PASI75) response at Week 16. • Patients achieving a score of Clear (0) or Almost Clear (1) and an at least 2-point improvement in Investigator Global Assessment (IGA) at Week 16. […] Safety Endpoints: • The occurrence, severity, and seriousness of treatment-emergent adverse events (TEAEs) reported over the 16-week Treatment Period and the 4-week Follow-up Period. • Changes from Baseline in physical examination; vital sign measurements (body temperature, respiration rate, heart rate, and systolic and diastolic blood pressure measurements); and body weight over the 16-week Treatment Period and the 4-week Follow-up Period. • Changes from Baseline in electrocardiogram (ECG) findings over the 16-week Treatment Period and the 4-week Follow-up Period. • Changes from Baseline in safety laboratory values (haematology, serum chemistry, and urinalysis) over the 16-week Treatment Period and the 4-week Follow-up Period. • Hospital Anxiety and Depression Scale at each visit except Week 2. • Columbia-Suicide Severity Rating Scale (C-SSRS) at each visit except Weeks 1 and 2. Exploratory Endpoints: • Change from Baseline in Physician's Global Assessment of Fingernails (PGA-F) at Week 16. • Change in Scalp-Specific Investigator Global Assessment (ss-IGA) from Baseline at Week 16 in the subgroup of patients with Baseline score of at least 2 (mild scalp psoriasis). • Change from Baseline of scalp itch Numeric Rating Scale (NRS) at Week 16 in the subgroup of patients with Baseline score of at least 4 on the 11-point NRS. • Change from Baseline in joint pain NRS at Week 16 in patients with psoriatic arthritis (PsA) and a Baseline joint pain score of at least 4. • Change in cardiovascular risk factors at Week 16. The following parameters will be collected: weight, body mass index, waist and hip circumferences, blood pressure, fasting serum glucose, triglycerides, cholesterol (total and high-density lipoprotein/low-density lipoprotein fractions), and C-reactive protein. • Change from Baseline in skin biomarkers at Week 16 collected via tape stripping and analysed using proteomic methods. • Plasma levels of the drug and its metabolites at scheduled visits. Study Design
A multicentre, randomized, double-blind, placebo-controlled, parallel group, Phase 2b dose-ranging study designed to assess the efficacy and safety of modified-release orismilast compared with placebo in adult patients with moderate-to-severe plaque-type psoriasis. Efficacy and safety outcomes will be evaluated to select an appropriate orismilast dose for subsequent Phase 3 studies.
After a Screening visit up to 28 days before Baseline, 202 patients were assigned randomly in a 1:1:1:1 ratio to receive 1 of the 3 orismilast doses (20 mg, 30 mg, or 40 mg) or placebo twice daily (BID) for 16 weeks, with a 4-week Follow-up visit. Administration will begin at Baseline with a dose titration period. The maximum duration of study participation was approximately 24 weeks.
At Baseline and each visit from Week 4 onwards, PASI, BSA, IGA, and PSS were assessed. Quality of life was assessed by administration of DLQI at Baseline and at Weeks 16 and 20 visits. Additional efficacy parameters include: an ss-IGA, a Physician Global Assessment of fingernail psoriasis (PGA-F), and patient's joint pain NRS for those with a diagnosis of PsA. These parameters were assessed at Baseline and Weeks 16 and 20. Safety evaluations include adverse events (Aes), laboratory and vital sign assessments, physical examinations, as well as mood change evaluation by patient (Hospital Anxiety and Depression Scale) and suicidal ideation evaluation by Investigator (C-SSRS). A panel of cardiovascular risk factors were assessed at Baseline and Week 16. […]

CYP3A4 = molecular target: T1, CYP3A4 (Homo sapiens, UniProt P08684); test: CYP3A4 inhibition from clinical studies; assay type: in vivo
T1 construct: from tissue; host or cells: human subjects in vivo (clinical studies); no organ is named
Source text: Patients receiving orismilast concurrently with these medicinal • products should be monitored for related AEs, especially if they have a narrow therapeutic window.

[2] = test system: PDE4B and PDE4D subtype splice variants; test: PDE4 inhibition in vitro; assay type: biochemical
[3] = test system: chronic oxazolone-induced ear skin inflammation; details: 10 and 30 mg/kg doses; cited from earlier work
[4] = post-hoc group 20 mg BID (<100 kg)/30 mg BID (≥100 kg), NRI

T1 sequence (P08684 whole entry): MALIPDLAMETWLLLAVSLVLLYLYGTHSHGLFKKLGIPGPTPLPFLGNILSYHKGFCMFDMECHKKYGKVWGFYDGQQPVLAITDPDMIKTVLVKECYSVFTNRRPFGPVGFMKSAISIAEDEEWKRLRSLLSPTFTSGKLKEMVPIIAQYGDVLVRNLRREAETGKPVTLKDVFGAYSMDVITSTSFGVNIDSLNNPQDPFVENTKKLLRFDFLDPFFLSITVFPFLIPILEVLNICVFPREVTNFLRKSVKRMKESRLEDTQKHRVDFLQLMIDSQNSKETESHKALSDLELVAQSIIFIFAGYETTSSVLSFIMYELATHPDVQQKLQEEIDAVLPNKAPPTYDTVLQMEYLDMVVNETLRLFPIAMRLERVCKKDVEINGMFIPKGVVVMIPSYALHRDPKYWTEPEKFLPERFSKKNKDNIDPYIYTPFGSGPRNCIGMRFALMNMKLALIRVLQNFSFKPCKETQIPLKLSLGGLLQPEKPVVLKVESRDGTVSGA

## O=C(Cc1c(Cl)c[n+]([O-])cc1Cl)c1ccc(OC(F)F)c2c1OC1(CCS(=O)(=O)CC1)O2 [orismilast, 2-(3,5-dichloro-1-oxidopyridin-1-ium-4-yl)-1-[7-(difluoromethoxy)-1′,1′-dioxospiro[1,3-benzodioxole-2,4′-thiane]-4-yl]ethanone]
[1]; 20 mg BID
  mean percentage change in PASI from baseline to Week 16: −52.6%
[1]; 20 mg BID, NRI
  PASI-75 responders: 35%
  PASI-90 responders: 23%
  PASI-100 responders: 8%
[1]; 30 mg BID
  mean percentage change in PASI from baseline to Week 16: −61.2%
[1]; 30 mg BID, NRI
  PASI-75 responders: 44%
  PASI-90 responders: 20%
  PASI-100 responders: 8%
[1]; 40 mg BID
  mean percentage change in PASI from baseline to Week 16: −63.7%
[1]; NRI
  efficacy of post-hoc group 20 mg BID (<100 kg)/30 mg BID (≥100 kg) relative to all pre-specified treatment arms: improved
[1]; PASI50, PASI75, PASI90, weeks 4, 8, 12 and 16
  efficacy of the 20 mg BID dose vs the 30 mg BID dose in patients weighing ≥100 kg: less efficacious
[1]; PASI75 and in particular PASI90
  efficacy of the 20 mg BID dose vs the 30 mg BID dose in patients weighing <100 kg at baseline: (similar or) more efficacious
[1]; all doses (20, 30, 40 mg BID)
  treatment effect versus placebo, percentage change in PASI from baseline to Week 16 (primary endpoint): statistically significant treatment effect
[1]; [4]
  PASI-75 responders: 46%
  PASI-90 responders: 29%
  PASI-100 responders: 10%
[1]; weeks 4, 8, 12 and 16
  efficacy (PASI50, PASI75, PASI90) of the 30 mg BID dose in patients weighing ≥100 kg compared to <100 kg at baseline: consistently higher
CYP3A4
  inhibition of CYP3A4: weak inhibitor
[2]
  inhibition of the PDE4 isoforms PDE4D3 and PDE4B2: selective inhibitor
[3]
  ear thickness and inflammation markers: significantly reduced
